Square brackets hold non-standard residues; d marks the D form. Peptide text beside a SMILES is read from it. ξ: configuration not given here. Ile(3ξ) = CCC(C)[C@H](N)C(=O)O; Thr(3ξ) = CC(O)[C@H](N)C(=O)O; Nle = CCCC[C@H](N)C(=O)O
Key:
[1] = tested on: anti-apraglutide antibodies; assay: Anti-apraglutide antibodies ELISA in serum, Phase 2 SBS-IF trial (Example 5); type: in vivo, human
Text: Blood samples for analysis of plasma concentration of apraglutide and fasting plasma L-citrulline, a marker of enterocyte mass, were collected at baseline, during first and second treatment injection, four days after first treatment injection and at the end of treatment.
(§1) A fully validated ELISA method was used for the detection of anti-apraglutide antibodies in serum, following a three-tiered assay approach. In the first tier, anti-apraglutide antibodies present in samples and controls bonded to apraglutide immobilized on a microtiter plate. The bound anti-apraglutide antibodies were then detected with protein A/G and protein L. A sample with a signal above the validated screening cut-point was considered potentially positive and was then tested in the second tier, the confirmatory assay. For this, samples were pre-treated with an excess of apraglutide prior to testing them in the assay described above. An inhibition of the signal equal to or greater than the validated confirmatory cut-point confirmed the presence of antibodies. Samples were then reported as anti-apraglutide antibody positive. Titers were then determined by serial dilution of all confirmed positive samples.

[2] = tested on: anti-apraglutide antibodies; assay: Anti-apraglutide antibodies ELISA in serum, Phase 2 metabolic balance trial (Example 6); type: in vivo, human
Description: Blood samples for analysis of the plasma concentration of apraglutide and plasma concentration of fasting L-citrulline, a marker of enterocyte mass, were collected at baseline, during first and second injection (pre-dose and at sequential timepoints), four days after first injection and at the end of treatment. Blood sampling for apraglutide pharmacokinetics was also performed after the fourth and last injection covering 96 hours. […] Blood samples for anti-apraglutide antibodies were collected at baseline, at the end of treatment and at the 4-6 weeks follow-up visit. All eight patients tested negative for anti-apraglutide antibodies at baseline.
as §1, with “An inhibition of the signal equal to or greater than the validated confirmatory cut-point confirmed the presence of antibodies. Samples were then reported as anti-apraglutide antibody positive.” left out

[3] = Population PK/PD model of plasma apraglutide and plasma citrulline (healthy volunteers and SBS patients)
Description: Plasma citrulline was used as a pharmacodynamic (“PD”) marker to describe the effect of apraglutide. Similar to the pharmacokinetic (“PK”) model development, the PK/PD model was developed for the healthy individuals from studies GLY-101-2015 and TA799-002 only. For development of the PD model, the PD observations were fitted together with the PK observations using the final PK model with its structure, residual error-, covariates- and random effects-models. The starting model was a turnover model where plasma citrulline was constantly synthesized and degraded with the synthesis rate ksyn and the degradation rate kdeg. Plasma apraglutide stimulated citrulline synthesis via a sigmoid Emax relationship with the baseline citrulline level R0, the half-maximal effect at the concentration EC50, the maximal effect Emax, and a Hill coefficient gamma. It was assumed that citrulline turnover was in steady state such that citrulline synthesis was determined solely by citrulline baseline and degradation. The population PK/PD of plasma apraglutide was established with data from two studies in healthy volunteers and two studies with SBS patients that tested doses between 2.5 and 50 mg SC.
The population PK/PD model was used to predict plasma apraglutide exposure and plasma citrulline trough concentration-time profiles with and without inter-individual variability for individuals with body weights between 40 and 120 kg receiving weekly doses of 2.5, 5, or 10 mg SC. […] Apraglutide exposure for body weights between 40 and 120 kg and apraglutide SC doses of 2.5, 5, or 10 mg was compared to post-hoc exposure estimates of SBS patients. Bracketing at a body weight of 50 kg between doses of 2.5 and 5 mg was simulated.
Plasma citrulline was described by a turnover model and maximal PD effect model.

Compound: CCCC[C@H](NC(=O)[C@H](CCC(=O)O)NC(=O)[C@H](CC(=O)O)NC(=O)[C@H](CO)NC(=O)[C@H](Cc1ccccc1)NC(=O)[C@H](CO)NC(=O)CNC(=O)[C@H](CC(=O)O)NC(=O)CNC(=O)[C@@H](N)Cc1c[nH]cn1)C(=O)N[C@H](Cc1ccccc1)C(=O)N[C@H](C(=O)N[C@H](C(=O)N[C@@H](CC(C)C)C(=O)N[C@@H](CC(=O)O)C(=O)N[C@@H](CC(C)C)C(=O)N[C@@H](CC(C)C)C(=O)N[C@@H](C)C(=O)N[C@@H](C)C(=O)N[C@@H](CCCNC(=N)N)C(=O)N[C@@H](CC(=O)O)C(=O)N[C@@H](Cc1ccccc1)C(=O)N[C@H](C(=O)N[C@@H](CC(N)=O)C(=O)N[C@@H](Cc1c[nH]c2ccccc12)C(=O)N[C@@H](CC(C)C)C(=O)N[C@H](C(=O)N[C@@H](CCC(N)=O)C(=O)N[C@H](C(=O)N[C@@H](CCCCN)C(=O)N[C@H](C(=O)N[C@H](C(=O)N[C@@H](CC(=O)O)C(N)=O)C(C)O)C(C)CC)C(C)O)C(C)CC)C(C)CC)C(C)CC)C(C)O (stereo partly drawn) [apraglutide, L-histidyl-glycyl-L-aspartyl-glycyl-L-seryl-L-phenylalanyl-L-seryl-L-aspartyl-L-glutamyl-L-norleucyl-D-phenylalanyl-L-threonyl-Lisoleucyl-L-leucyl-L-aspartyl-L-leucyl-L-leucyl-L-alanyl-L-alanyl-L-arginyl-L-aspartyl-L-phenylalanyl-L-isoleucyl-L-asparaginyl-Ltryptophanyl-L-leucyl-L-isoleucyl-L-glutaminyl-L-threonyl-L-lysyl-L-isoleucyl-L-threonyl-Laspartic acid amide] (H-HGDGSFSDE[Nle][dF][Thr(3ξ)][Ile(3ξ)]LDLLAARDF[Ile(3ξ)]NWL[Ile(3ξ)]Q[Thr(3ξ)]K[Ile(3ξ)][Thr(3ξ)]D-NH2)
- Patients who developed anti-apraglutide antibodies ([1]; during the trial): Three
- Patients positive for anti-apraglutide antibodies ([1]; end of 5 mg treatment period): Two
- Patients positive for anti-apraglutide antibodies ([1]; end of 10 mg treatment period): one
- Effects of anti-apraglutide antibodies on PK profile, pharmacodynamic response, adverse events ([1]; in vivo): No effects of anti-apraglutide antibodies were detected
- Patients who developed anti-apraglutide antibodies ([2]; during the trial, patient with SBS-IF): One
- Effects of anti-apraglutide antibodies on PK profile, pharmacodynamic response, adverse events ([2]; in vivo): No effects of anti-apraglutide antibodies were detected
- Body weight coefficient on clearance βC1/F/B,W [3]: 1.8
- Dose at which citrulline saturation appears [3]: 5 mg
- Dose coefficient on zero-order absorption duration βTk0,Dose [3]: 0.249
- Half-life, population PK estimate [3]: 31.2 h
- Maximal effect (Emax) on citrulline synthesis [3]: 0.626
- Central volume of distribution, population PK estimate ([3]; 70-kg individual, 5 mg SC): 31.5 L
- Clearance, population PK estimate ([3]; 70-kg individual, 5 mg SC): 16.8 L/day
- Volume of distribution, population PK/PD model estimate ([3]; 70-kg individual, 5 mg SC): 31.3 L
- Half-maximal effective apraglutide concentration (EC50) on plasma citrulline ([3]; plasma concentration, Emax turnover model): 0.0137 µg/mL

Reference: patent US11766470B2, “Manufacture, formulation and dosing of apraglutide” (VectivBio AG, priority 2020, dated 2023)
